Test results as given in publication PMC7311396, “Ultra-large chemical libraries for the discovery of high-affinity peptide binders” (Nature Communications, 2020).
Non-standard residues stand in square brackets, D forms with d. Residues, ends and D or L forms follow the SMILES beside them.

Tested on: anti-HA mAb clone 12ca5
Assay: Competition fluorescence polarization of HA epitope and analogues
Type: binding
Details: for effect of mutation on affinity towards 12ca5: competition FP of HA epitope Ala scan mutants; for IC50: competition FP, 100 nM 12ca5, 28 nM YPYDVPDYAK(FITC)-CONH2, 1 mg/mL BSA, 0.02% Tween 20, 1x PBS, RT, read after 1 h; for Kd: from competition FP, 100 nM 12ca5, 28 nM FITC tracer
Experimental: Competition fluorescence polarization of HA epitope and analogues:
Solutions of unlabeled peptides (~1 mg/mL each; Supplementary Table 1) in 1x PBS was prepared in the presence of 100 nM 12ca5, 1 mg/mL BSA, 0.02% Tween 20 (120 μL). Fluorescent competitor was added (YPYDVPDYAK(FITC)α-CONH2; 28 nM).
The resulting solution was diluted serially (20 μL) into 100 nM 12ca5, 28 nM […]
YPYDVPDYAK(FITC)α-CONH2, 1 mg/mL BSA, 0.02% Tween 20 in 1x PBS (80 μL; […]
5-fold dilutions). The resulting solutions were transferred to a 96 well plate (Greiner Bio- […]
(RT), and read after 1 h on a Tecan Infinite M1000 plate reader (470 nm excitation; 517 nm detection; 5 nm bandwidth). The concentration of fluorescent […] was determined based on absorbance at 490 nm, using ε = 76,900 M-1cm-1.
Competition fluorescence polarization of HA epitope Ala scan mutants:
Competition fluorescence polarization experiments were carried out as described in Competition fluorescence polarization of HA epitope and analogues.

Molecule	effect of mutation on affinity towards 12ca5	IC50 [µM]	Kd [µM]
CC(C)[C@H](NC(=O)[C@H](CC(=O)O)NC(=O)[C@H](Cc1ccc(O)cc1)NC(=O)[C@@H]1CCCN1C(=O)[C@@H](N)Cc1ccc(O)cc1)C(=O)N1CCC[C@H]1C(=O)N[C@@H](CC(=O)O)C(=O)N[C@@H](Cc1ccc(O)cc1)C(=O)NCC(N)=O [YPYDVPDYG] (H-YPYDVPDYG-NH2; N-terminus assumed)	deleterious but did not completely abolish binding	3.6 ± 1	0.17 ± 0.07
NC(=O)[C@@H](Cc1c[nH]cn1)NC(=O)[C@H]1CCCN1C(=O)[C@@H](CCC(=O)O)NC(=O)[C@@H](CC(=O)O)NC(=O)[C@@H](Cc1ccccc1)NC(=O)[C@@H](CCC(=O)O)NC(=O)[C@@H](Cc1ccc(O)cc1)NC(=O)[C@H]1CCCN1C(=O)[C@H](N)Cc1ccc(O)cc1 [ypyefdeph, reference compound] (H-[dY][dP][dY][dE][dF][dD][dE][dP][dH]-NH2)		380 ± 25	18 ± 4
YPYAVPDYAα-CONH2	deleterious but did not completely abolish binding		
YPYDVPAYAα-CONH2	completed abrogated affinity		
YPYDVPDAAα-CONH2	completed abrogated affinity		
